Measurements taken from patent publication EP2951180B1, “2,6,7,8 SUBSTITUTED PURINES AS HDM2 INHIBITORS” (Merck Sharp & Dohme Corp., priority 2013, dated 2014).

Target: T1, HDM2 (Homo sapiens, UniProt Q00987)
T1 construct: Thioredoxin (N); made in house; host or cells: E. coli strain BL21(DE3)Rosetta
Experiment: HDM2 FRET assay (inhibition of binding of FITC labeled p53-pocket peptide to HDM2)
Conditions: Table 9; read-out: FRET IC50
In short: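 Signal is read as the 520/495 nm emission ratio and converted to percent inhibition; nonlinear sigmoidal regression yields IC50. The assay mixes HDM2 (0.5 nM), FITC-p53 peptide (3 nM) and Tb anti-His antibody (0.25 nM) at 0.1% DMSO.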

T1 sequence (Q00987 17-125): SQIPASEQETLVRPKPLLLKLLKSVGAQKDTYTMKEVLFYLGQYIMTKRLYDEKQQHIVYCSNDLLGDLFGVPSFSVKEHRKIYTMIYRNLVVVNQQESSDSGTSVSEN

Compound	IC50 [nM]
C[C@@H](Nc1nc(C(=O)O)nc2nc(N3CCOC(C(F)(F)F)C3)n(Cc3ccc(C(F)(F)F)cc3)c12)C1CCC1 (stereo partly drawn) [Example 9.23, 6-{[(1R)-1-cyclobutylethyl]amino}-7-[4-(trifluoromethyl)benzyl]-8-[2-(trifluoromethyl)morpholin-4-yl]-7H-purine-2-carboxylic acid]	25.2
COCC1CN(c2nc3nc(C(=O)O)nc(N[C@H](C)C4CCC4)c3n2Cc2ccc(C(F)(F)F)cc2)CCO1 (stereo partly drawn) [Example 9.24, 6-{[(1R)-1-cyclobutylethyl]amino}-8-[2-(methoxymethyl)morpholin-4-yl]-7-[4-(trifluoromethyl)benzyl]-7H-purine-2-carboxylic acid]	72.9
C[C@@H](Nc1nc(C(=O)O)nc2nc(N3CCOC4(CCCC4)C3)n(Cc3ccc(C(F)(F)F)cc3)c12)C1CCC1 [Example 9.25, 6-{[(1R)-1-cyclobutylethyl]amino}-8-(6-oxa-9-azaspiro[4.5]dec-9-yl)-7-[4-(trifluoromethyl)benzyl]-7H-purine-2-carboxylic acid]	19.4
C#CCC1CN(c2nc3nc(C(=O)O)nc(N[C@H](C)C4CCC4)c3n2Cc2ccc(C(F)(F)F)cc2)CCO1 (stereo partly drawn) [Example 9.26, 6-{[(1R)-1-cyclobutylethyl]amino}-8-(2-prop-2-yn-1-ylmorpholin-4-yl)-7-[4-(trifluoromethyl)benzyl]-7H-purine-2-carboxylic acid]	34.2
C[C@@H](Nc1nc(C(=O)O)nc2nc(N3C[C@H]4C[C@@H]3CO4)n(Cc3ccc(C(F)(F)F)cc3)c12)C1CCC1 [Example 9.27, 6-{[(1R)-1-cyclobutylethyl]amino}-8-[(1R,4R)-2-oxa-5-azabicyclo [2.2.1]hept-5-yl]-7-[4-(trifluoromethyl)benzyl]-7H-purine-2-carboxylic acid]	23.7
C[C@@H](Nc1nc(C(=O)O)nc2nc(N3CCOC[C@@H]3C)n(Cc3ccc(Cl)cc3)c12)C1CC1 [Example 9.28, 7-(4-chlorobenzyl)-6-{[(1R)-1-cyclopropylethyl]amino}-8-[(3S)-3-methylmorpholin-4-yl]-7H-purine-2-carboxylic acid]	143
C[C@@H](Nc1ncnc2nc(N[C@@H](CO)c3ccccc3)n(Cc3ccc(C(F)(F)F)cc3)c12)C1CCC1 [Example 9.29]	4470
CC(Nc1nc2nc(C(=O)O)nc(N[C@H](C)C3CCC3)c2n1Cc1ccc(C(F)(F)F)cc1)c1cccnc1 (stereo partly drawn) [Example 9.30, 6-{[(1R)-1-cyclobutylethyl]amino}-8-[(1-pyridin-3-ylethyl)amino]-7-[4-(trifluoromethyl)benzyl]-7H-purine-2-carboxylic acid]	3.05
CC(Nc1nc2nc(C(=O)O)nc(N[C@H](C)C3CCC3)c2n1Cc1ccc(C(F)(F)F)cc1)c1ccccn1 (stereo partly drawn) [Example 9.31, 6-{[(1R)-1-cyclobutylethyl]amino}-8-[(1-pyridin-2-ylethyl)amino]-7-[4-(trifluoromethyl)benzyl]-7H-purine-2-carboxylic acid]	0.526
C[C@@H](Nc1nc(C(=O)O)nc2nc(N3CCOC[C@@H]3C)n(Cc3ccc(C(F)(F)F)cc3)c12)C1CCC1 [Example 9.32, 6-{[(1R)-1-cyclobutylethyl]amino}-8-[(3S)-3-methylmorpholin-4-yl]-7-[4-(trifluoromethyl)benzyl]-7H-purine-2-carboxylic acid]	15.2
C[C@@H]1COCCN1c1nc2nc(C(=O)O)nc(N[C@H](C)C3CCC3)c2n1Cc1ccc(C(F)(F)F)cc1 [Example 9.35]	7.17
CC[C@H](Nc1nc2nc(C(=O)O)nc(N[C@H](C)C3CCC3)c2n1Cc1ccc(C(F)(F)F)cc1)c1ccccc1 [Example 9.36, 6-{[(1R)-1-cyclobutylethyl]amino}-8-{[(1S)-1-phenylpropyl]amino}-7-[4-(trifluoromethyl)benzyl]-7H-purine-2-carboxylic acid]	0.862
C[C@@H](Nc1nc(C(=O)O)nc2nc(N(C)[C@@H](C)c3ccccc3)n(Cc3ccc(C(F)(F)F)cc3)c12)C1CCC1 [Example 9.37, 6-{[(1R)-1-cyclobutylethyl]amino}-8-{methyl[(1S)-1-phenylethyl]amino}-7-[4-(trifluoromethyl)benzyl]-7H-purine-2-carboxylic acid]	21.6
C[C@@H](Nc1nc(C(=O)O)nc2nc(NC(=O)c3ccccc3)n(Cc3ccc(C(F)(F)F)cc3)c12)C1CCC1 [Example 9.38]	657
C[C@H](Nc1nc2nc(C(=O)O)nc(N[C@H](C)C3CCC3)c2n1Cc1ccc(C(F)(F)F)cc1)c1cccc(F)c1 [Example 9.39, 6-{[(1R)-1-cyclobutylethyl]amino}-8-{[(1S)-1-(3-fluorophenyl)ethyl]amino}-7-[4-(trifluoromethyl)benzyl]-7H-purine-2-carboxylic acid]	0.753
CC1CCCN(c2nc3nc(C(=O)O)nc(N[C@H](C)C4CCC4)c3n2Cc2ccc(C(F)(F)F)cc2)C1 (stereo partly drawn) [Example 9.40, 6-{[(1R)-1-cyclobutylethyl]amino}-8-(3-methylpiperidin-1-yl)-7-[4-(trifluoromethyl)benzyl]-7H-purine-2-carboxylic acid]	12.2
C[C@@H](Nc1nc(C(=O)O)nc2nc(N3CCCC(c4ccccc4)C3)n(Cc3ccc(C(F)(F)F)cc3)c12)C1CCC1 (stereo partly drawn) [Example 9.41, 6-{[(1R)-1-cyclobutylethyl]amino}-8-(3-phenylpiperidin-1-yl)-7-[4-(trifluoromethyl)benzyl]-7H-purine-2-carboxylic acid]	27.3
CC(C)CC(=O)Nc1nc2nc(C(=O)O)nc(N[C@H](C)C3CCC3)c2n1Cc1ccc(C(F)(F)F)cc1 [Example 9.42, 6-{[(1R)-1-cyclobutylethyl]amino}-8-[(3-methylbutanoyl)amino]-7-[4-(trifluoromethyl)benzyl]-7H-purine-2-carboxylic acid]	324
C[C@@H](Nc1nc(C(=O)O)nc2nc(NC(=O)C3CCCCC3)n(Cc3ccc(C(F)(F)F)cc3)c12)C1CCC1 [Example 9.43, 6-{[(1R)-1-cyclobutylethyl]amino}-8-[(cyclohexylcarbonyl)amino]-7-[4-(trifluoromethyl)benzyl]-7H-purine-2-carboxylic acid]	343
C[C@@H](Nc1nc(C(=O)O)nc2nc(N3CCCCC3c3ccccc3)n(Cc3ccc(C(F)(F)F)cc3)c12)C1CCC1 (stereo partly drawn) [Example 9.44, 6-{[(1R)-1-cyclobutylethyl]amino}-8-(2-phenylpiperidin-1-yl)-7-[4-(trifluoromethyl)benzyl]-7H-purine-2-carboxylic acid]	3.67
C[C@@H](Nc1nc(C(=O)O)nc2nc(N3CCCC(C)(C)C3)n(Cc3ccc(C(F)(F)F)cc3)c12)C1CCC1 [Example 9.45, 6-{[(1R)-1-cyclobutylethyl]amino}-8-(3,3-dimethylpiperidin-1-yl)-7-[4-(trifluoromethyl)benzyl]-7H-purine-2-carboxylic acid]	7.57
CC(C)C1CCCN(c2nc3nc(C(=O)O)nc(N[C@H](C)C4CCC4)c3n2Cc2ccc(C(F)(F)F)cc2)C1 (stereo partly drawn) [Example 9.46, 6-{[(1R)-1-cyclobutylethyl]amino}-8-[3-(1-methylethyl)piperidin-1-yl]-7-[4-(trifluoromethyl)benzyl]-7H-purine-2-carboxylic acid]	26.2
CCCN(c1nc2nc(C(=O)O)nc(N[C@H](C)C3CCC3)c2n1Cc1ccc(C(F)(F)F)cc1)[C@@H](C)c1ccccc1 [Example 9.49, 6-{[(1R)-1-cyclobutylethyl]amino}-8-{[(1S)-1-phenylethyl] (propyl)amino}-7-[4-(trifluoromethyl)benzyl]-7H-purine-2-carboxylic acid]	22.8
C[C@@H](Nc1nc(C(=O)O)nc2nc(N3CCOC[C@H]3c3ccccc3)n(Cc3ccc(C(F)(F)F)cc3)c12)C1CCC1 [Example 9.50, 6-{[(1R)-1-cyclobutylethyl]amino}-8-[(3R)-3-phenylmorpholin-4-yl]-7-[4-(trifluoromethyl)benzyl]-7H-purine-2-carboxylic acid]	1.76
C[C@@H](Nc1nc(C(=O)O)nc2nc(N3CCOC[C@@H]3c3ccccc3)n(Cc3ccc(C(F)(F)F)cc3)c12)C1CCC1 [Example 9.51, 6-{[(1R)-1-cyclobutylethyl]amino}-8-[(3S)-3-phenylmorpholin-4-yl]-7-[4-(trifluoromethyl)benzyl]-7H-purine-2-carboxylic acid]	120
C[C@@H](Nc1nc(C(=O)O)nc2nc(N3CCCC3c3ccccc3)n(Cc3ccc(C(F)(F)F)cc3)c12)C1CCC1 (stereo partly drawn) [Example 9.52, 6-{[(1R)-1-cyclobutylethyl]amino}-8-(2-phenylpyrrolidin-1-yl)-7-[4-(trifluoromethyl)benzyl]-7H-purine-2-carboxylic acid]	31.9
C[C@@H](Nc1nc(C(=O)O)nc2nc(N3CCCCC3c3ccccn3)n(Cc3ccc(C(F)(F)F)cc3)c12)C1CCC1 (stereo partly drawn) [Example 9.53, 6-{[(1R)-1-cyclobutylethyl]amino}-8-(2-pyridin-2-ylpiperidin-1-yl)-7-[4-(trifluoromethyl)benzyl]-7H-purine-2-carboxylic acid]	26.4
C[C@@H](Nc1nc(C(=O)O)nc2nc(N3CCC3c3ccccc3)n(Cc3ccc(C(F)(F)F)cc3)c12)C1CCC1 (stereo partly drawn) [Example 9.54, 6-{[(1R)-1-cyclobutylethyl]amino}-8-(2-phenylazetidin-1-yl)-7-[4-(trifluoromethyl)benzyl]-7H-purine-2-carboxylic acid]	23.9
C[C@@H](Nc1nc(-c2noc(=O)[nH]2)nc2nc(N3CCOC[C@H]3c3ccccc3)n(Cc3ccc(C(F)(F)F)cc3)c12)C1CCC1 [Example 9.57, 3-(6-{[(1R)-1-cyclobutylethyl]amino}-8-[(3R)-3-phenylmorpholin-4-yl]-7-[4-(trifluoromethyl)benzyl]-7H-purin-2-yl)-1,2,4-oxadiazol-5(4H)-one]	1.72
CC[C@@H](c1ccccc1)N(C)c1nc2nc(C(=O)O)nc(N[C@H](C)C3CCC3)c2n1Cc1ccc(C(F)(F)F)cc1 [Example 9.58, 6-{[(1R)-1-cyclobutylethyl]amino}-8-{methyl[(1S)-1-phenylpropyl]amino}-7-[4-(trifluoromethyl)benzyl]-7H-purine-2-carboxylic acid]	16.4
